The source of these data is article PMC11500415, “Chemical inhibition of stomatal differentiation by perturbation of the master-regulatory bHLH heterodimer via an ACT-Like domain” (Nature Communications, 2024).

Several values for one entry are separate records, joined by “and”; a condition that tells them apart may be missing. Identical values can stand only once. Entries after “also recorded” stand apart in the source; their conditions may differ. Like-named read-outs stand apart in the source and are kept apart here.

Assay [1] concerns the target T1, SPCH (Arabidopsis thaliana, UniProt Q700C7).
T1 construct: ΔNSPCH (98-364); made in house; host or cells: E. coli BL21
The assay can be described thus: BLI direct binding. Also noted: species or system A. thaliana.

In assay [2] the test system is Commelina benghalensis stomatal opening induced by light. The assay can be described thus: Measurement of stomatal opening. As to conditions: 50 µM; light 3 h (Supplementary Fig. 1). In kind it is in vivo. As to the method: The experiments were performed as described previously[30],[68]. Briefly, Stomidazolone or ABA were added to a multi-well plate with basal buffer [5 mM MES/bistrispropane (pH 6.5), 50 mM KCl, and 0.1 mM CaCl2] to be diluted to a final concentration of 50 or 20 µM, respectively. C. benghalensis plants were incubated in the dark overnight; then, 4 mm diameter leaf discs were excised from fully expanded leaves using a hole punch (Biopsy Punch, Kai Medical). Samples were immersed in a basal buffer containing compounds for 30 min before being exposed to light (150 µmol m^−2 s^−1 red light and 50 µmol m^−2 s^−1 blue light) for 3 h. The stomatal apertures were observed using a stereoscopic microscope (BX43; Olympus). The microscopic images were acquired with a charge-coupled device (CCD) camera (DP27; Olympus), followed by autofocus image processing using cellSens standard software (Olympus). Measurement of stomatal apertures of C. benghalensis was performed by using an automation program, DeepStomata[69].

[3] abbreviates: SPCH, Conc. (µM) 3.12, rep-1, rep-2.
Setting [4] is: SPCH, Conc. (µM) 6.25, rep-1, rep-2.
Where [5] appears, read: SPCH, Conc. (µM) 12.5, rep-1, rep-2.
The mark [6] stands for this setting: SPCH, Conc. (µM) 50, rep-1, rep-2.
Setting [7] is: SPCH, Conc. (µM) 100, rep-1, rep-2.
[8] abbreviates: SPCH, Conc. (µM) 200, rep-1, rep-2.

T1 sequence (Q700C7 98-364): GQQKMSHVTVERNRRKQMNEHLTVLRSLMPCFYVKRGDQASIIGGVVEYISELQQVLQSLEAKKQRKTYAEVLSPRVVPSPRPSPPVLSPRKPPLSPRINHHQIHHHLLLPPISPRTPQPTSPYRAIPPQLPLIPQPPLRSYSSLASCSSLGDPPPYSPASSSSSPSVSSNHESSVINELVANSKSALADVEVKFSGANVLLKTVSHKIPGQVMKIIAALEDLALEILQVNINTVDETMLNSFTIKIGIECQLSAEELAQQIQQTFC

For `O=C1C(c2ccccc2)=NC(NS(=O)(=O)c2ccccc2)(c2ccccc2)N1S(=O)(=O)c1ccccc1` (stereo not drawn) [Stomidazolone], the Kd was 85.2 ± 6.8 µM in assay [1] (BLI steady state, SPCH, read-out: KD (SS)); 75.6 ± 0.7 µM in assay [1] (BLI, SPCH, read-out: KD); 75.4 µM and 76.8 µM and 74.1 µM and 73.1 µM and 74.8 µM and 72.6 µM and 75.2 µM and 76.7 µM and 76.9 µM and 74.4 µM in assay [1] (SPCH loaded on Anti-GST sensor, fit per sensor, Stomid Conc. (µM) 200-3.12, rep-1, rep-2, read-out: KD). In addition, the “kdis” value in assay [1] (SPCH loaded on Anti-GST sensor, fit per sensor, Stomid Conc. (mM) 200-3.12, rep-1, rep-2) was 0.319 s⁻¹ and 0.323 s⁻¹ and 0.32 s⁻¹ and 0.325 s⁻¹ and 0.33 s⁻¹ and 0.326 s⁻¹. Further, the “kon” value in assay [1] (SPCH loaded on Anti-GST sensor, fit per sensor, Stomid Conc. (µM) 200-3.12, rep-1, rep-2) is 4280 M⁻¹ s⁻¹ and 4310 M⁻¹ s⁻¹ and 4320 M⁻¹ s⁻¹ and 4400 M⁻¹ s⁻¹ and 4290 M⁻¹ s⁻¹ and 4340 M⁻¹ s⁻¹ and 4360 M⁻¹ s⁻¹; in assay [1] (read-out: kon(1/Ms), SPCH loaded on Anti-GST sensor, fit per sensor, Stomid Conc. (mM) 200-3.12, rep-1, rep-2), 4370 M⁻¹ s⁻¹. Also, the RMax in assay [1] (setting [3]) is 0.03 and 0.0213; in assay [1] (setting [4]), 0.062 and 0.0321; in assay [1] (setting [5]), 0.067 and 0.0781; in assay [1] (setting [6]), 0.135 and 0.1621; in assay [1] (setting [7]) it was 0.235 and 0.2711; in assay [1] (setting [8]) it was 0.335 and 0.323. The “Req/Rmax(%)” value in assay [1] (setting [3]) is 100%; in assay [1] (setting [4]), 97% and 100%; in assay [1] (setting [6]), 89%; in assay [1] (setting [8]) it was 98%. In addition, the Response in assay [1] (setting [3]) is 0.0312 and 0.0213; in assay [1] (setting [4]) it was 0.0608 and 0.0321; in assay [1] (setting [5]), 0.065 and 0.0781; in assay [1] (setting [6]), 0.1334 and 0.1621; in assay [1] (setting [7]), 0.233 and 0.2711; in assay [1] (setting [8]), 0.3311 and 0.323. Besides, the koff in assay [1] (read-out: kdis(1/s), SPCH loaded on Anti-GST sensor, fit per sensor, Stomid Conc. (mM) 200-3.12, rep-1, rep-2) stood at 0.329 s⁻¹. The “effect on stomatal movement (in words)” value in assay [2] is recorded as “did not exhibit any discernable effects; also recorded: does not affect”.
